From paper PMC7687371, “Quantitative in Vitro to in Vivo Extrapolation (QIVIVE) for Predicting Reduced Anogenital Distance Produced by Anti-Androgenic Pesticides in a Rodent Model for Male Reproductive Disorders” (Environmental Health Perspectives, 2020)
Marks after values point to notes of the source that are not given here.

Experiments:
pregnant dams and pups = conditions: ref EFSA's Draft Assessment Reports (DARs); cited from earlier work
[1] = design: method as in EFSA 2009; conditions: 24 h after dosing; ref EFSA 2009; cited from earlier work
[2] = PBK model first-order kinetic parameters fitted to in vivo ADME data; design: species or system rat; conditions: PBK model parameter
NCI-H295R cells = assay: H295R steroidogenesis assay; assay type: cell-based, human
Method: To capture effects on steroid hormone synthesis (testosterone and androstendione), we tested all 12 pesticides in the H295R assay with the human adrenocortical carcinoma cell line NCI-H295R (American Type Culture Collection no. CRL-2,128, LGC Standards), as previously described ([Hecker et al. 2011]; [Rosenmai et al. 2013]). In brief, cells were cultured in DMEM/F-12 +glutamine medium with HEPES buffer (Invitrogen) containing 1% insulin-transferrin-sodium selenite plus Premix (VWR) and 2.5% Nu-Serum (BD Bioscience) at 37°C in a 5% CO2 atmosphere. The day before exposure, cells were seeded 300,000 per well in clear 24-well plates (VWR Corning). Cells were exposed for 48 h to control (Forskolin: 1μM , 10μM (Sigma-Aldrich); and Prochloraz: 0.3μM , 3μM (VWR-Bie and Berntsen) or test compounds. The vehicle (DMSO) concentration was kept constant in all wells (0.1%). After 48 h, the exposure culture medium was removed and stored at –80°C until the levels of 10 steroid hormones (testosterone, androstenedione, aldosterone, corticosterone, cortisol, dehydroepiandrosterone, 17α-hydroxyprogesterone , progesterone, estrone, and 17β-estradiol ) were quantified using the high-performance liquid chromatography–tandem mass spectrometry method described elsewhere ([Mortensen and Pedersen 2007]). Minor modifications were made to accommodate a smaller sample size and to include more hormones. The liquid chromatography system (Agilent 1100) was equipped with an Atlantis C18 column ( 2.1×150mm , 3μm ) (Waters Corp.) maintained at 40°C. The sample injection volume was 50μL . […] The mass spectrometer was a Quattro Ultima triple quadrupole instrument (Waters Corp.). […] Each pesticide was tested in 2-fold serial dilutions at concentrations between 0.8 and 50μM in three independent experiments, and hormone levels were normalized to the solvent controls containing 0.1% DMSO. Cell viability was evaluated by using the 3-(4,5-dimethylthiazol-2-yl)-2,5- diphenyltetrazolium bromide (MTT) assay (Sigma) as previously described ([Hecker et al. 2011]; [Rosenmai et al. 2013]). Fluorescence was measured (excitation 560 nm , emission 590 nm ) using a Wallac Victor2 1420 multilabel counter (PerkinElmer).

[3] = ref Wetmore et al. (2012); cited from earlier work
[4] = design: method as in U.S. EPA 2012; conditions: EPI Suite, experimental preferred over modeled; ref U.S. EPA 2012; cited from earlier work

## C=CCOC(Cn1ccnc1)c1ccc(Cl)cc1Cl (stereo not shown) [Imazalil, imazalil]
Pregnant dams and pups
  Critical toxicity: Increased duration of gestation , effects on pups/fetuses related to maternal toxicity
  LOAEL (mg/kg bw): 80 mg/kg bw
  NOAEL (mg/kg bw): 20 mg/kg bw
[1]
  Number of metabolites discovered in urine and feces: at least 25
[2]
  Fecal excretion rate from gut (L/h) KFeces: 0.5 L/h
  Portal GI absorption rate into liver (L/h) KAS: 1 L/h
  Urine excretion rate from kidney (L/h) KUrine: 0.53 L/h
NCI-H295R cells; H295R steroidogenesis assay
  Effect on androgen (steroid) synthesis, in words: inhibited testosterone synthesis
NCI-H295R cells; Homo sapiens, NCI-H295R, read-out: Testosterone inhibition (IC20 µM)
  IC20: 500 nM
NCI-H295R cells; multiple contrast tests
  Androstendione, LOEC: 0.8 µM
  Corticosterone, LOEC: 0.8 µM
  Cortisol, LOEC: 0.8 µM
  DHEA, LOEC: 0.8 µM
  Estradiol, LOEC: 0.8 µM
  OH-Progesterone, LOEC: 0.8 µM
  Progesterone, LOEC: 0.8 µM
  Testosterone, lowest observed effect concentration (LOEC): 0.8 µM
[3]
  Unbound plasma fraction (%): 4.8^g %
[4]
  log Kow: 3.82
